Two compounds from patent US12239661B2, “Methods and compositions for treating undesired implanted tissue filler” (priority 2019, dated 2025) can be followed below.

Several values for one entry are separate records, joined by “and”; a condition that tells them apart may be missing. Equal entries are not always repeated. Where two headings read alike, the source gives them in different places. Marks after values point to notes of the source that are not given here.

Data set [1] is described as follows: X-ray CT of volume, mean density and 3D shape of Radiesse nodules and injected hyperosmotic solutions (Example 4). Type of data set: in vivo, Pig (Sus scrofa domesticus). Here is the method:
Pigs are injected by SC route with Radiesse® filler without Lidocaine (Test item). One hour after the Radiesse® filler injection, selected different hyperosmotic solutions are injected by SC route into the dermal filler nodules. For two Radiesse® filler nodules per pig, no additional product is injected; these nodules are used as controls.
The evolution over time of the volume and mean density of the Radiesse® filler nodules with injection of the different solutions are assessed by CT-scanner at selected time points: on Day 0, at about 1 hour (h) and 15 minutes (min), 2 h and 4 h after the Radiesse® filler injection and solution injection, and then, on Day 1 (about 24 h after Radiesse® filler injection), Day 3, Day 7 and Day 15.
On Day 0, 4 pigs received ten (10) SC injections of Radiesse® dermal filler (P20WK-EE-01) of about 500 μl/nodule in the flank (ventral area) at T=0. One hour after Radiesse® dermal filler injections (T=1 h), about 1.5 ml of different hyperosmotic solutions (P20WK-EE-02 to P20WK-EE-05) were each injected into 8 Radiesse® filler nodules. Two Radiesse® filler nodules per animal were not injected with hyperosmotic solution and served as controls.
A total of 7 CT-scans were performed at 1 h 15±10 min, 2 h±15 min, 4 h±20 min, 1 day (24 h±1 h), 3, 7 and 15 days after injection of the dermal filler, as described in FIG. 9A.
On Day 0 (TO), 10 SC injections of test item P20WK-EE-01 (Radiesse® dermal filler) were performed in the ventral area (five nodules on each flank of the ventral area). For each SC nodule, a theoretical volume of 500 μL was administered. One hour (±5 min) after injection of dermal filler, SC injections of the different solutions (prepared on Day −3) were performed into 8 nodules of dermal filler. For each injection of solution, a theoretical volume of 1.5 mL was administered (see, e.g., injection scheme in Table 11).
In order to measure the volume, the mean density and to visualize the 3D shape of the dermal filler SC injected (in presence or absence of different hyperosmotic solutions), in vivo CT-scans were performed on Day 0: 1 h 15 (±10 min), 2 h (±15 min) and 4 h (±20 min), on Day 1 (24 h±1 h), Day 3, Day 7 and Day 15.
The CT acquisitions are analyzed with the software Avizo version 9.2.0. The objective of this analysis was to assess the dispersion over time of the Radiesse® dermal filler injected by SC route after injection of different hyperosmotic solutions.
To achieve this goal, the evolution of these parameters is observed over time: • the volume of each nodule (Radiesse® dermal filler and solution separately), • the mean density of each nodule (Radiesse® dermal filler and solution separately), • the 3D shape of each nodule by visualization of the 3D model of each nodule at each time point (Radiesse® dermal filler with or without solution separately). Segmentation:
An image segmentation is performed on each CT acquisition on the […] reconstruction. At first, a manual pre-segmentation is performed around each nodule in order to roughly isolate the voxels corresponding to Radiesse® dermal filler and hyperosmotic solutions and defined a Region of Interest (ROI). Secondly, an automatic segmentation is applied on the ROI previously defined using a global grey level thresholding procedure. […] Similarly, all the voxels having a grey level between these HU values are selected in a ROI and corresponds to the pure solution or solution containing some dispersed Radiesse® dermal filler (see, FIG. 10).
Then, a 3D model of these selected voxels (see, FIG. 11) is obtained allowing the calculation of the total volume (in mm^3) and the mean density (in HU) of the two defined compartments of each nodule of Pure Radiesse® dermal filler and of each solution containing or not containing dispersed Radiesse® dermal filler.
The volume (in mm^3) of the ROI of Radiesse® dermal filler and the solutions corresponding to each nodule and the mean density (in HU) of each nodule are calculated at each time point.

Data set [2] in a line: In vivo CT of filler nodule volume, density and 3D shape after test solutions 0-8 (Example 3). As to the method: One hour after filler injections (T=1 h), 1.5 mL of selected solutions (Table 5, solutions 0-8, test items, solution 0 is normal saline and not hyperosmotic) were injected each into 9 dermal filler nodules in the right flank (ventral area).
(§1) A total of 7 CT-scans were performed at 1 h 15, 2 h, 4 h, 1 day (24 h), 3, 7 and 14 days after injection of the dermal filler. The clinical state of each animal is assessed once a week by body weight measurement and clinical observations.
The 10 SC injections of dermal filler on Day 0 were performed in the ventral area, (five nodules on each flank of the ventral area) for each pig. For each SC nodule, a theoretical volume of 500 μl was administered. One hour (±5 min) after injection of dermal filler, SC injection of the different solutions (prepared the day before) were performed into nine (9) nodules of dermal. For each SC nodule, a theoretical volume of 1.5 mL of test solution was administered.
The X-ray computed tomography acquisitions were performed with the Computed Tomography Scanner BrightSpeed 16 (General Electric). In order to measure the volume and the mean density and to visualize the 3D shape of the dermal filler (Radiesse® filler with or without test solution) injected, in vivo CT-scans were performed on Day 0: 1 h 15 (±10 min), 2 h (±15 min) and 4 h (±20 min), on Day 1 (24 h+1 h), Day 3, Day 7 and Day 14.
During CT acquisition on Day 0, the pigs received an IM injection of anesthesia. The animals were maintained under anesthesia until the CT acquisition at T=2 h (2 h after dermal filler injection session). Between these CT acquisitions, the animals were under surveillance in the recovery room on a heating mat with fluidotherapy. At the end of the CT acquisition at T=2 h, the pigs received a tattoo around each injected site. During the CT acquisitions at T=4 h and on Days 1, 3, 7 and 14, pigs received an IM injection of anesthesia. For the CT-scans, animals were positioned in dorsal recumbency and acquisitions were centered on the injection sites. The parameters of the CT-scan are described in Table 5.
The CT acquisition was analyzed with the software Avizo version 9.2.0. The objective of this analysis was to assess the degradation over time of the dermal filler injected by SC route after injection of different test solutions.
An image segmentation processing was performed on each CT acquisition. First, a manual pre-segmentation was performed around each nodule in order to roughly isolate the voxels corresponding to dermal filler product, which defined a Region of Interest (ROI). Second, an automatic segmentation was applied on the previously defined ROI using a global grey level thresholding procedure.
On day 0, a farm pig received ten (10) SC injections of Radiesse® dermal filler 0.5 mL (ventral area) (10 nodules in total). One hour after filler injections (T=1 h), 1.5 mL of one of eight test hyperosmotic solutions (1-8 solutions, Table 5) was injected at an injection site. One injection site was untreated and one injection site was treated with normal saline (0.9% wt/v NaCl).

For data set [3] the following is noted: SC injection of 1.5 mL into filler nodule. As to the method:
as §1
On day 14, one pig received one SC injection of Radiesse® filler in order to represented a Day 0 injection which is considered a positive control and then, all pigs were euthanized and each nodule with a part of the skin, along with negative control skin (skin samples without injection), were sampled in order to perform histological analysis of, for example, the inflammation, the necrosis and the dermal filler presence at the injection site.

The mark [4] stands for this setting: individual nodules, [+250, +∞] HU, listed as Radiesse + Fructose.
Where [5] appears, read: mean of 8 nodules, [+250, +∞] HU.

Turning to `O=C(CO)[C@@H](O)[C@H](O)[C@H](O)CO` [sol 11, Fructose], the “Change in Volume as percent of Injected Volume, Day 14/15” value in data set [1] (Example 4 (Day 15), mean) amounted to 1930%. For the same compound, in data set [1] (Example 4, mean), the “Change in Volume as percent of Injected Volume, Day 0 + 1 h 15” value is recorded as 1581* percent; the “Change in Volume as percent of Injected Volume, Day 0 + 2 h” value was 1610%; the “Change in Volume as percent of Injected Volume, Day 0 + 4 h” value is on record as 1871%; the “Change in Volume as percent of Injected Volume, Day 1” value came out at 2285%. In data set [1] (Example 4, mean), the “Change in Volume as percent of Injected Volume, Day 3” value stood at 1959% and the “Change in Volume as percent of Injected Volume, Day 7” value is listed as 2002%. For the same compound, in data set [1] (between −100 HU and 250 HU), the “average of the mean density of solution nodules, T=1 h 15” value is 58.6±6.2 HU; the “average of the mean density of solution nodules, T=4 h” value is given as −1.0±7.7 HU; the “mean volume of solution with potential dispersed Radiesse, Day 15” value was found to be 883.9±269.9 mm^3; the “mean volume of solution with potential dispersed Radiesse, T+4 h” value amounted to 7000.8±1389.9 mm^3. Moreover, in data set [1] (between −100 HU and 250 HU), the “variation of solution volume on Day 15 compared to the injected volume on T=1 h” value is −42.8% and the “variation of the average of the mean density of solutions, Day 15 compared to T=1 h 15” value is 34.7%. For the same compound, in data set [1] (setting [4]), the “Nodule volume, Day 0 + 1 h 15” value is 799.1 mm^3 and 845.1 mm^3 and 739.4 mm^3 and 852.5 mm^3 and 760.4 mm^3 and 837.5 mm^3 and 793.0 mm^3 and 710.6 mm^3; the “Nodule volume, Day 0 + 2 h” value is 795.9 mm^3 and 856.3 mm^3 and 750.5 mm^3 and 863.0 mm^3 and 770.1 mm^3 and 898.7 mm^3 and 808.3 mm^3 and 712.1 mm^3; the “Nodule volume, Day 0 + 4 h” value was 1039.3 mm^3 and 957.8 mm^3 and 861.1 mm^3 and 985.4 mm^3 and 902.9 mm^3 and 1039.4 mm^3 and 912.1 mm^3 and 796.2 mm^3; the “Nodule volume, Day 1” value was 1168.5 mm^3 and 1120.2 mm^3 and 1122.3 mm^3 and 1226.3 mm^3 and 1085.5 mm^3 and 1165.0 mm^3 and 1153.8 mm^3 and 1115.5 mm^3. Also, in data set [1] (setting [4]), the “Nodule volume, Day 3” value is 1043.6 mm^3 and 1039.7 mm^3 and 961.0 mm^3 and 1053.3 mm^3 and 969.6 mm^3 and 992.2 mm^3 and 891.2 mm^3 and 897.7 mm^3; the “Nodule volume, Day 7” value is 1041.9 mm^3 and 1040.7 mm^3 and 1239.0 mm^3 and 1200.9 mm^3 and 879.3 mm^3 and 953.1 mm^3 and 833.5 mm^3 and 838.3 mm^3; the “Nodule volume, Day 15” value was 997.7 mm^3 (2×) and 997.2 mm^3 and 944.9 mm^3 and 1054.8 mm^3 and 923.5 mm^3 and 912.9 mm^3 and 905.4 mm^3. Moreover, in data set [1] (setting [5]), the “Mean nodule volume, Day 0 + 1 h 15” value was 792.2 mm^3; the “Mean nodule volume, Day 0 + 2 h” value turned out to be 806.9 mm^3; the “Mean nodule volume, Day 0 + 4 h” value is listed as 936.8 mm^3; the “Mean nodule volume, Day 1” value was found to be 1144.6 mm^3. In data set [1] (setting [5]), the “Mean nodule volume, Day 3” value came to 981.0 mm^3; the “Mean nodule volume, Day 7” value is given as 1003.3 mm^3; the “Mean nodule volume, Day 15” value is reported as 966.8±52.9 mm^3. In data set [1] (mean of 8 nodules, [+250, +∞] HU, listed as Radiesse + Fructose), the “Mean nodule volume, Day 15” value is given as 966.8 mm^3. Further, in data set [1] (pure Radiesse >250 HU), the “average of the mean density of nodules, Day 1” value amounted to 424.6±31.6 HU; the “average of the mean density of nodules, Day 3” value worked out at 505.0±72.2 HU; the “average of the mean density of nodules, Day 15” value was found to be 512.9±57.4 HU.
For `[Ca+2].[Cl-].[Cl-]` [sol 4, Calcium chloride], in data set [2] (Day 14, CT 3D models), the “nodule visibility / degradation of filler at end of study” value is given as “largely degraded/dispersed the Radiesse® dermal filler”. Besides, the “Change in Volume as percent of Injected Volume, Day 14/15” value in data set [2] (Example 3 (Day 14), mean) is given as 169.73* percent. In data set [2] (Example 3, mean), the “Change in Volume as percent of Injected Volume, Day 0 + 2 h” value amounted to 162.46%; the “Change in Volume as percent of Injected Volume, Day 0 + 4 h” value came out at 157.72%; the “Change in Volume as percent of Injected Volume, Day 1” value is listed as 145.42* percent; the “Change in Volume as percent of Injected Volume, Day 3” value is given as 174.24* percent. Moreover, in data set [2] (Example 3, mean), the “Change in Volume as percent of Injected Volume, Day 7” value is listed as 175.91* percent. Besides, the “Change in Volume as percent of Injected Volume, Day 0 + 1 h 15” value in data set [2] (Example 3, mean, 1.5 mL solution into 500 μl nodule) is 170.60* percent. For the same compound, the “local tolerance at injection site” value in data set [3] is given as “large wound on pigs”. The “local tolerance at injection site” value in data set [3] (listed as CaCl2) is given as “strong local irritating effect”. The “local tolerance at injection site” value in data set [3] (listed as ClCl2) was “severe skin necrosis”.
